In US10689429B2, “Double-acylated GLP-1 compounds” (Novo Nordisk A/S, priority 2014, dated 2020):
Read-outs that look alike come from different tables or passages of the source. *1 amine or outer side, *2 acyl side, *3 side chain or, on linkers, in order; H or OH if unused. Where no end group is shown, it is not given here. Side-chain parts run from the residue outwards. [ ]: non-standard residue; d: D form. The star is where a group is joined. Undecanoyl(11-OPh(4-COOH)) = O=C(O)c1ccc(OCCCCCCCCCCC(=O)*)cc1; Decanoyl(10-O(3-COOH-Ph)) = O=C(O)c1cccc(OCCCCCCCCCC(=O)*)c1; γGlu = O=C(O)[C@H](CCC(=O)[*:2])N[*:1]; AEEA = NCCOCCOCC(=O)O; Aib = CC(C)(N)C(=O)O

B1: GLP-1 derivative of Example 17 (peptide)
peptide: HGEGTFTSDVSSYLEEQAAREFIAWLVRGK([AEEA-AEEA-γGlu-Undecanoyl(11-OPh(4-COOH))])K([AEEA-AEEA-γGlu-Undecanoyl(11-OPh(4-COOH))])
B2: GLP-1 derivative of Example 1 (peptide)
peptide: H[Aib]EGTFTSDVSSYLEEQAAREFIAWLVRGKK
modifications: not fully specified (residues 30, 31)
B3: GLP-1 derivative of Example 15 (peptide)
peptide: H[Aib]EGTFTSDVSSYLEEQAAREFIAWLVRGK([AEEA-AEEA-γGlu-Decanoyl(10-O(3-COOH-Ph))])K([AEEA-AEEA-γGlu-Decanoyl(10-O(3-COOH-Ph))])

What was measured:
human GLP-1 receptor [1] = biological target: T1, human GLP-1 receptor (Homo sapiens, UniProt P43220); assay: In vitro potency, CRE luciferase reporter gene assay in BHK cells expressing the human GLP-1 receptor; type: cell-based; settings: average of duplicates;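 further: firefly luciferase luminescence read after 3 h incubation at 37 °C, compounds tested in an eight-point series from 0.01 pM to 100 nM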
T1 construct: expressed in transfected cells; host or cells: membranes from BHK cells, parent line BHKTS13, clone FCW467-12A
Protocol: The in vitro potency is the measure of human GLP-1 receptor activation in a whole cell assay.
In vitro potency was determined by measuring the response of the human GLP-1 receptor in a reporter gene assay. The assay was performed in a stably transfected BHK cell line that expresses the human GLP-1 receptor and contains the DNA for the cAMP response element (CRE) coupled to a promoter and the gene for firefly luciferase (CRE luciferase). When the human GLP-1 receptor is activated it results in the production of cAMP, which in turn results in the luciferase protein being expressed. When assay incubation is completed the luciferase substrate (luciferin) is added and the enzyme converts luciferin to oxyluciferin to produce bioluminescence. The luminescence is measured as the readout for the assay.
An increase of the in vitro potency, EC50 value, in the presence of serum albumin would indicate an affinity to serum albumin and represents a method to predict a protracted pharmacokinetic profile of the test substance in animal models.
The cells were cultured at 5% CO2 in Cell Culture Medium. They were aliquoted and stored in liquid nitrogen. Before each assay an aliquot is taken up and washed twice in PBS before being suspended at the desired concentration in the assay specific buffer. For 96-well plates the suspension was made to give a final concentration of 5×10^3 cells/well.
Assay Medium consisted of DMEM w/o phenol red, 10 mM Hepes and 1× Glutamax. The 1% Assay Buffer consisted of 2% ovalbumin, 0.2% Pluronic F-68 and 2% HSA in Assay Medium. The 0% Assay Buffer consisted of 2% ovalbumin and 0.2% Pluronic F-68 in Assay Medium.
1) Cell stocks were thawed in a 37° C. water bath.
2) Cells were washed three times in PBS.
3) The cells were counted and adjusted to 5×10^3 cells/50 μl (1×10^5 cells/ml) in Assay Medium. A 50 μl aliquot of cells was transferred to each well in the assay plate.
4) Stocks of the test compounds and reference compounds were diluted to a concentration of 0.2 pM in 0% Assay Buffer for the 0% HSA CRE luciferase assay and 1% Assay Buffer for the 1% HSA CRE luciferase assay. […] Compounds were tested at the following final concentrations: 1×10^−7 M, 1×10^−8 M; 1×10^−9 M, 1×10^−10 M, 1×10^−11 M, 1×10^−12 M, 1×10^−13 M, and 1×10^−14 M. 6) The assay plate was incubated for 3 h in a 5% CO2 incubator at 37° C. […] 8) A 100 μl aliquot of steadylite plus reagent was added to each well of the assay plate (reagent was light sensitive). 9) Each assay plate was covered with aluminum foil to protect it from light and shaken for 30 min at room temperature. 10) Each assay plate was read in a Packard TopCount NXT instrument. Calculations and Results
The data from the TopCount instrument were transferred to GraphPad Prism software. The software performs a non-linear regression (log(agonist) vs response).
A minimum of two replicates was measured for each sample on separate assay plates. The reported values are averages of the duplicates. For some examples more than one assay was run and in this case the data reported are the averages of the averaged duplicates.

[2] = Pharmacodynamic (PD) study in pigs, effect on food intake; type: in vivo
Protocol: The purpose of this experiment is to investigate the effect of the GLP-1 derivatives on food intake in pigs. This was done in a pharmacodynamic (PD) study as described below, in which food intake was measured from 1 to 4 days after administration of a single dose of the GLP-1 derivative, as compared to a vehicle-treated control group.
Female Landrace Yorkshire Duroc (LYD) pigs or Large White hybrid, approximately 3 months of age, weighing approximately 30-35 kg were used (n=3-4 per group). The animals were housed in a group for approximately 1 week during acclimatisation to the animal facilities. During the experimental period the animals were placed in individual pens at least 2 days before dosing and during the entire experiment for measurement of individual food intake.
The animals were fed ad libitum with pig fodder (Svinefoder Danish Top or HRC Sow and Weaner Diet) at all times both during the acclimatisation and the experimental period. Food intake was monitored on line by logging the weight of fodder every 15 minutes using the Mpigwin system (Ellegaard Systems, Faaborg, Denmark). Alternatively fodder was offered in the morning each day, and availability for the full 24-hour period was ensured. Any uneaten fodder was removed and weighed (manually) on the following morning, and replaced with fresh fodder.
The GLP-1 derivatives were dissolved in a phosphate buffer (50 mM sodium phosphate, 70 mM sodium chloride, 0.05% tween 80, pH 7.4) at concentrations of approximately 120 nmol/ml corresponding to doses of 3 nmol/kg. The phosphate buffer served as vehicle.
On the last day of each study, 2 or 4 days after dosing, a blood sample for measurement of plasma exposure of the GLP-1 derivative was taken from the heart in anaesthetised animals.
Food intake was calculated in 24 h intervals (0-24 h, 24-48 h, 48-72 h and 72-96 h).

[3] = Pharmacokinetic studies in Beagle dogs (i.v. and p.o.); type: in vivo; settings: dog, plasma; for half-life: iv, 2 nmol/kg, read-out: Beagle dogs iv PK, t½ (converted)
Protocol: Pharmacokinetic (PK) studies in Beagle dogs were conducted in order to determine a) the protraction of the GLP-1 derivatives after i.v. administration, and b) the bioavailability of the GLP-1 derivatives after p.o. administration.
By protraction is meant the prolongation of the time in the body and thereby the time of action of the GLP-1 derivatives. This was done in pharmacokinetic (PK) studies, where the terminal half-life of the derivative in question was determined. By terminal half-life is generally meant the period of time it takes to halve a certain plasma concentration, measured after the initial distribution phase.
The dogs were housed in pens (12 hours light: 12 hours dark) with softwood based granules as bedding, two together in each pen and fed restrictedly once daily with […] ™ Struvite Management Diet (Dechra Veterinary Products, UK). Exercise was permitted daily, whenever possible. The dogs were used for repeated pharmacokinetic studies with a suitable wash-out period between successive GLP-1 derivative dosings. An acclimatisation period of 4 weeks was allowed during which time the dogs were trained. All handling, dosing and blood sampling of the animals was performed by trained and skilled staff. The dogs were fasted overnight before dosing and from 0 to 4 h after dosing, but had ad libitum access to water during the whole period.
The dogs were housed in social groups (12 hours light: 12 hours dark), and fed individually and restrictedly once daily with Royal Canin Medium Adult dog (Royal Canin Products, China Branch, or Brogaarden A/S, Denmark). Exercise and group social was permitted daily, whenever possible. The dogs were used for repeated pharmacokinetic studies with a suitable wash-out period between successive GLP-1 derivative dosings. An appropriate acclimatisation period was given prior to initiation of the first pharmacokinetic study. All handling, dosing and blood sampling of the animals was performed by trained and skilled staff. Before the studies the dogs were fasted overnight and from 0 to 4 h after dosing. […]

[4] = Pharmacokinetic study in mini pigs after i.v. administration; type: in vivo; settings: female, Göttingen, pig, plasma, iv, 2 nmol/kg; read-out: Minipig iv PK, t½ (converted)
Protocol: The purpose of this study is to determine the protraction in vivo of the GLP-1 derivatives after i.v. administration to mini pigs, i.e. the prolongation of their time in the body and thereby their time of action. This was done in pharmacokinetic (PK) studies, where the terminal half-life of the derivative in question was determined. By terminal half-life is generally meant the period of time it takes to halve a certain plasma concentration, measured after the initial distribution phase.
Female Göttingen mini pigs obtained from Ellegaard Göttingen Minipigs (Dalmose, Denmark) at approximately 5 months of age and weighing approximately 10 kg were used in the studies. The mini pigs were housed in pens with straw as bedding, four to six together in each pen and fed restrictedly once or twice daily with Altromin 9023 mini pig diet (Chr. Petersen A/S, DK-4100 Ringsted). The pigs were used for repeated pharmacokinetic studies with a suitable wash-out period between successive GLP-1 derivative dosings. An acclimatisation period of 1 week was allowed during which time the mini pigs were trained to be fixated on the back for blood sampling and in slings for i.v. dosing. All handling, dosing and blood sampling of the animals was performed by trained and skilled staff.
The GLP-1 derivatives were dissolved in 50 mM sodium phosphate, 70 mM sodium chloride, 0.05% tween 80, pH 7.4 to a concentration of approximately 20 nmol/ml. Intravenous injections (the volume corresponding to usually 2 nmol/kg, for example 0.1 ml/kg) of the compounds were given as intravenous injections via a Venflon inserted in an ear vein, while the animals were placed un-anaesthetised in a sling. The dose volume was 0.1 ml/kg, and blood was sampled at predefined time points for up till 13 days post dosing (samples were taken with a syringe from a jugular vein). Blood samples (for example 0.8 ml) were collected in EDTA buffer (8 mM) and then centrifuged at 4° C. and 2000 G for 10 minutes.
Individual plasma concentration-time profiles were analysed by a non-compartmental model in WinNonlin v. […] 6.2 or 6.3 (Pharsight Inc., Mountain View, Calif., USA), or other relevant software for PK analysis, and the resulting terminal half-lives determined.

human GLP-1 receptor [5] = biological target: T2, human GLP-1 receptor (human, UniProt P43220); assay: displacement of [125I]-GLP-1-(7-36)NH2 from membranes with human GLP-1 receptor, SPA, high HSA (2.0%)
Protocol: (§1) Each derivative is added in a series of concentrations to isolated membranes containing the human GLP-1 receptor and displacement of the labelled ligand is monitored. The receptor binding is reported as the concentration at which half of the labelled ligand is displaced from the receptor, the $IC50$ value.
(§2) For the receptor binding assay in the presence of low HSA (0.001%) 50 μl of the assay buffer was added to each well of an assay plate. […] For the receptor binding assay in the presence of high HSA (2.0%) 50 μl of the 8% albumin stock was added to each well of an assay plate. […] Cell membrane aliquots were thawed and diluted to their working concentration. Fifty μl were added to each well in the assay plate. […] WGA SPA beads were suspended in assay buffer at 20 mg/ml. The suspension was diluted to 10 mg/ml in assay buffer just prior to addition to the assay plate. Fifty μl were added to each well in the assay plate. […] A 25 μl aliquot was reserved for measuring total counts/well. […] The assay plate was incubated for 2 h at 30° C. […] The assay plate was centrifuged for 10 min. […] The assay plate was read in a Packard TopCount NXT instrument.

human GLP-1 receptor [6] = biological target: T2, human GLP-1 receptor
Target sequence in this assay (P43220 24-463): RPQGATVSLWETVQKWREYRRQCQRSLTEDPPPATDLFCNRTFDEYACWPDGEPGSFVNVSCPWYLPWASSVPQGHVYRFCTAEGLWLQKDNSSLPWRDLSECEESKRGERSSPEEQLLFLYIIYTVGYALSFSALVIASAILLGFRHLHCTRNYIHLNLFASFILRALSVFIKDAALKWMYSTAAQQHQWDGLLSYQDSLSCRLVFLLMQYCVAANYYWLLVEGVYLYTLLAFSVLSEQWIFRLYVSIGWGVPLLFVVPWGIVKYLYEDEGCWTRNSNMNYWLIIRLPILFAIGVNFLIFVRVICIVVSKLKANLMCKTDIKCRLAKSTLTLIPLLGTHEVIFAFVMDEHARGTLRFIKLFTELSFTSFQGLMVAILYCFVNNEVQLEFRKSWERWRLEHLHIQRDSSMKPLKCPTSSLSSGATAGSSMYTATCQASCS

human GLP-1 receptor [7] = biological target: T2, human GLP-1 receptor; assay: displacement of [125I]-GLP-1-(7-36)NH2 from membranes with human GLP-1 receptor, SPA, low HSA (0.001%)
Protocol: as §1, §2

[8] = EC50/pM (1% HSA), 1% HSA final assay concentration

T1 sequence (P43220 24-463): as above

Row | Molecule | EC50 (human GLP-1 receptor [1]; [8]) | EC50 (human GLP-1 receptor [1]; EC50/pM (0% HSA), 0% HSA) | half-life [3] | half-life [4] | IC50 (human GLP-1 receptor [5]) | EC50/pM (0% HSA) (human GLP-1 receptor [6]) | EC50/pM (1% HSA) (human GLP-1 receptor [6]) | IC50 (human GLP-1 receptor [7]) | further results
1 | CC[C@H](C)[C@H](NC(=O)[C@H](Cc1ccccc1)NC(=O)[C@H](CCC(=O)O)NC(=O)[C@H](CCCNC(=N)N)NC(=O)[C@H](C)NC(=O)[C@H](C)NC(=O)[C@H](CCC(N)=O)NC(=O)[C@H](CCC(=O)O)NC(=O)[C@H](CCC(=O)O)NC(=O)[C@H](CC(C)C)NC(=O)[C@H](Cc1ccc(O)cc1)NC(=O)[C@H](CO)NC(=O)[C@H](CO)NC(=O)[C@@H](NC(=O)[C@H](CC(=O)O)NC(=O)[C@H](CO)NC(=O)[C@@H](NC(=O)[C@H](Cc1ccccc1)NC(=O)[C@@H](NC(=O)CNC(=O)[C@H](CCC(=O)O)NC(=O)C(C)(C)NC(=O)[C@@H](N)Cc1c[nH]cn1)[C@@H](C)O)[C@@H](C)O)C(C)C)C(=O)N[C@@H](C)C(=O)N[C@@H](Cc1c[nH]c2ccccc12)C(=O)N[C@@H](CC(C)C)C(=O)N[C@H](C(=O)N[C@@H](CCCNC(=N)N)C(=O)NCC(=O)N[C@@H](CCCCNC(=O)COCCOCCNC(=O)COCCOCCNC(=O)COCCOCCNC(=O)COCCOCCNC(=O)CC[C@H](NC(=O)CCCCCCCCCCCCC(=O)O)C(=O)O)C(=O)N[C@@H](CCCCNC(=O)COCCOCCNC(=O)COCCOCCNC(=O)COCCOCCNC(=O)COCCOCCNC(=O)CC[C@H](NC(=O)CCCCCCCCCCCCC(=O)O)C(=O)O)C(=O)O)C(C)C [Example 20] | 5.8 pM |  |  |  |  |  |  |  | EC50 (human GLP-1 receptor [1]; 0% HSA, read-out: EC50/pM (0% HSA)): 2.7 pM; PD in pig, food intake (% of vehicle) for hours 0-24 ([2]; single s.c. dose 3 nmol/kg, 0-24 h, NS = not significantly different from vehicle): 10 % of vehicle; PD in pig, food intake (% of vehicle) for hours 24-48 ([2]; single s.c. dose 3 nmol/kg, 24-48 h, NS = not significantly different from vehicle): 18 % of vehicle; PD in pig, food intake (% of vehicle) for hours 48-72 ([2]; single s.c. dose 3 nmol/kg, 48-72 h, NS = not significantly different from vehicle): 65 % of vehicle; PD in pig, food intake (% of vehicle) for hours 72-96 ([2]; single s.c. dose 3 nmol/kg, 72-96 h, NS = not significantly different from vehicle): 81^NS % of vehicle; reduction in food intake (in words) ([2]; single s.c. injection in pigs): largest reduction in food intake
2 | CC[C@H](C)[C@H](NC(=O)[C@H](Cc1ccccc1)NC(=O)[C@H](CCC(=O)O)NC(=O)[C@H](CCCNC(=N)N)NC(=O)[C@H](C)NC(=O)[C@H](C)NC(=O)[C@H](CCC(N)=O)NC(=O)[C@H](CCC(=O)O)NC(=O)[C@H](CCC(=O)O)NC(=O)[C@H](CC(C)C)NC(=O)[C@H](Cc1ccc(O)cc1)NC(=O)[C@H](CO)NC(=O)[C@H](CO)NC(=O)[C@@H](NC(=O)[C@H](CC(=O)O)NC(=O)[C@H](CO)NC(=O)[C@@H](NC(=O)[C@H](Cc1ccccc1)NC(=O)[C@@H](NC(=O)CNC(=O)[C@H](CCC(=O)O)NC(=O)C(C)(C)NC(=O)[C@@H](N)Cc1c[nH]cn1)[C@@H](C)O)[C@@H](C)O)C(C)C)C(=O)N[C@@H](C)C(=O)N[C@@H](Cc1c[nH]c2ccccc12)C(=O)N[C@@H](CC(C)C)C(=O)N[C@H](C(=O)N[C@@H](CCCNC(=N)N)C(=O)NCC(=O)N[C@@H](CCCCNC(=O)COCCOCCNC(=O)COCCOCCNC(=O)CC[C@H](NC(=O)CCCCCCCCCOc1cccc(C(=O)O)c1)C(=O)O)C(=O)N[C@@H](CCCCNC(=O)COCCOCCNC(=O)COCCOCCNC(=O)CC[C@H](NC(=O)CCCCCCCCCOc1cccc(C(=O)O)c1)C(=O)O)C(=O)O)C(C)C [Example 15, N{Epsilon-36}-[2-[2-[2-[[2-[2-[2-[[(4S)-4-carboxy-4-[10-(3-carboxyphenoxy)decanoylamino]butanoyl]amino]ethoxy]ethoxy]acetyl]amino]ethoxy]ethoxy]acetyl], N{Epsilon-37}-[2-[2-[2-[[2-[2-[2-[[(4S)-4-carboxy-4-[10-(3-carboxyphenoxy)decanoylamino]butanoyl]amino]ethoxy]ethoxy]acetyl]amino]ethoxy]ethoxy]acetyl]-[Aib8,Glu22,Arg26,Arg34,Lys36,Lys37]-GLP-1-(7-37)-peptide] | 44 pM | 6.1 pM | 111 h | 144 h |  |  |  |  | 
3 | CC[C@H](C)[C@H](NC(=O)[C@H](Cc1ccccc1)NC(=O)[C@H](CCC(=O)O)NC(=O)[C@H](CCCNC(=N)N)NC(=O)[C@H](C)NC(=O)[C@H](C)NC(=O)[C@H](CCC(N)=O)NC(=O)[C@H](CCC(=O)O)NC(=O)[C@H](CCC(=O)O)NC(=O)[C@H](CC(C)C)NC(=O)[C@H](Cc1ccc(O)cc1)NC(=O)[C@H](CO)NC(=O)[C@H](CO)NC(=O)[C@@H](NC(=O)[C@H](CC(=O)O)NC(=O)[C@H](CO)NC(=O)[C@@H](NC(=O)[C@H](Cc1ccccc1)NC(=O)[C@@H](NC(=O)CNC(=O)[C@H](CCC(=O)O)NC(=O)C(C)(C)NC(=O)[C@@H](N)Cc1c[nH]cn1)[C@@H](C)O)[C@@H](C)O)C(C)C)C(=O)N[C@@H](C)C(=O)N[C@@H](Cc1c[nH]c2ccccc12)C(=O)N[C@@H](CC(C)C)C(=O)N[C@H](C(=O)N[C@@H](CCCNC(=N)N)C(=O)NCC(=O)N[C@@H](CCCCNC(=O)COCCOCCNC(=O)COCCOCCNC(=O)CC[C@H](NC(=O)CCCCCCCCCCOc1ccc(C(=O)O)cc1)C(=O)O)C(=O)N[C@@H](CCCCNC(=O)COCCOCCNC(=O)COCCOCCNC(=O)CC[C@H](NC(=O)CCCCCCCCCCOc1ccc(C(=O)O)cc1)C(=O)O)C(=O)O)C(C)C [Example 1, N{Epsilon-36}-[2-[2-[2-[[2-[2-[2-[[(4S)-4-carboxy-4-[11-(4-carboxyphenoxy)undecanoylamino]butanoyl]amino]ethoxy]ethoxy]acetyl]amino]ethoxy]ethoxy]acetyl], N{Epsilon-37}-[2-[2-[2-[[2-[2-[2-[[(4S)-4-carboxy-4-[11-(4-carboxyphenoxy)undecanoylamino]butanoyl]amino]ethoxy]ethoxy]acetyl]amino]ethoxy]ethoxy]acetyl]-[Aib8,Glu22,Arg26,Arg34,Lys36,Lys37]-GLP-1-(7-37)-peptide] | 136 pM | 1.2 pM | 85 h | 103 h |  |  |  |  | bioavailability ([3]; po, absolute bioavailability (F), enteric coated sodium caprate tablet with approximately 10 mg derivative (Example 33)): 2.4%
4 | B1 |  |  |  |  | 536 nM | 14 pM | 199 pM | 0.9 nM | 
5 | B2 |  |  |  |  | 135 nM | 1.2 pM | 136 pM | 0.21 nM | 
6 | B3 |  |  |  |  | 126 nM | 6.1 pM | 44 pM | 0.38 nM | 
